Laboratory results: patent US20250179059A1 (The Regents of the University of California, priority 2021, published 2025)
Like-named read-outs stand apart in the source and are kept apart here.

Assays:
[1] = system: human SKM-1 acute myeloid leukemia cells; assay: SKM-1 antiproliferation cell-based assay (ATPlite); details: Homo sapiens
Outline: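 Log-phase cells in RPMI 1640/15% FBS were seeded at 34722 cells/mL and exposed for 4 days to nine-concentration DMSO serial dilutions in triplicate. Viability was read as ATP luminescence (ATPlite 1step), and IC50 values came from variable-slope non-linear regression.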

[2] = biological target: T1, human BRD4 bromodomain II (Homo sapiens, UniProt O60885); assay: Bromodomain binding assay (AlphaScreen), BRD4 BDII
T1 construct: human BRD4 bromodomain II [based on Genbank NM_058243, residues 349-460]; host or cells: E. coli
Outline: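 Compounds (10-point, 3-fold series) were preincubated 30 min at room temperature with E. coli-expressed N-terminal His6-tagged BRD4 BDII (residues 349-460) or BDI (residues 44-170) in 50 mM HEPES pH 7.5, 100 mM NaCl, 0.05% CHAPS, 0.1% BSA, 1% DMSO. Displacement of biotinylated tetra-acetylated H4 1-21 peptide was read by AlphaScreen; IC50 from curve fitting.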

[3] = SKM-1, 96 h, SKM-1 antiproliferation assay, 4 days, Table C2
[4] = AlphaScreen assay, Table C2, read-out: BRD4 BDII IC50
[5] = SKM-1, SKM-1 antiproliferation assay
[6] = BRD4 BDII AlphaScreen assay, read-out: BRD4 BD2 IC50

Structure (SMILES)	GI50 [1, 3]	IC50 [2, 4]	GI50 [1, 5]	IC50 [2, 6]
CC(=O)Nc1ccc(-c2cc(Cl)cc(-c3ccnc(N4CCNCC4)c3)c2O)cc1F [Example 268, N-(5′-chloro-3-fluoro-2′-hydroxy-3′-(2-(piperazin-1-yl)pyridin-4-yl)-[1,1′-biphenyl]-4-yl)acetamide]	30 to 300 nM	1 to 10 nM		
O=C1CCCN1c1ccc(-c2cccc(-c3cncc(N4CCNCC4)c3)c2O)cc1F [Example 249, 1-(3-fluoro-2′-hydroxy-3′-(5-(piperazin-1-yl)pyridin-3-yl)-[1,1′-biphenyl]-4-yl)pyrrolidin-2-one]	30 to 300 nM	1 to 10 nM		
Cc1cc(-c2ccnc(N3CCNCC3)c2)c(O)c(-c2ccc(N3CCN(C)C3=O)c(Cl)c2)c1 [Example 306, l-(3-chloro-2′-hydroxy-5′-methyl-3′-(2-(piperazin-1-yl)pyridin-4-yl)-[1,1'-biphenyl]-4-yl)-3-methylimidazolidin-2-one]	30 to 300 nM	1 to 10 nM		
[2H]C([2H])([2H])n1ccn(-c2ccc(-c3cc(F)cc(-c4ccnc(N5CCC[C@H](N)C5)c4)c3O)cc2Cl)c1=O [Example 452, (S)-1-(3′-(2-(3-aminopiperidin-1-yl)pyridin-4-yl)-3-chloro-5′-fluoro-2′-hydroxy-[1,1′-biphenyl]-4-yl)-3-deuteromethyl-1H-imidazol-2(3H)-one]	0.3 to 30 nM	0.01 to 1 nM		
Cc1cc(-c2cc(C)nc(N3CCNCC3)c2)c(O)c(-c2ccc(N3CCN(C)C3=O)c(Cl)c2)c1 [Example 337, 1-(3-chloro-2′-hydroxy-5′-methyl-3′-(2-methyl-6-(piperazin-1-yl)pyridin-4-yl)-[1,1′-biphenyl]-4-yl)-3-methylimidazolidin-2-one]	30 to 300 nM	1 to 10 nM		
CN1CCN(c2ccc(-c3cccc(-c4cncc(N5CC6(CNC6)C5)c4)c3O)cc2F)C1=O [Example 334, 1-(3′-(5-(2,6-diazaspiro[3.3]heptan-2-yl)pyridin-3-yl)-3-fluoro-2′-hydroxy-[1,1′-biphenyl]-4-yl)-3-methylimidazolidin-2-one]	300 to 3000 nM	10 to 100 nM		
CC(=O)Nc1ccc(-c2cccc(-c3cc(Cl)cc(N4CCNCC4)c3)c2O)cc1F [Example 214, N-(3″-chloro-3-fluoro-2′-hydroxy-5″-(piperazin-1-yl)-[1,1′:3′,1″-terphenyl]-4-yl)acetamide]	300 to 3000 nM	1 to 10 nM		
Cc1cc(-c2ccc(-n3ccn(C)c3=O)c(Cl)c2)c(O)c(-c2cc(N3CCNCC3)c3nn[nH]c3c2)c1 [Example 565]	0.3 to 30 nM	0.01 to 1 nM		
Cn1ccn(-c2ccc(-c3cc(F)cc(-c4cc(N5CCNCC5)c5nc[nH]c5c4)c3O)cc2Cl)c1=O [Example 504, 1-(3-chloro-5′-fluoro-2′-hydroxy-3′-(4-(piperazin-1-yl)-1H-benzo[d]imidazol-6-yl)-[1,1′-biphenyl]-4-yl)-3-methyl-1H-imidazol-2(3H)-one]	0.3 to 30 nM	1 to 10 nM		
C[C@@H]1CN(c2cc(-c3cc(F)cc(-c4ccc(-n5ccn(C)c5=O)c(Cl)c4)c3O)cc3nccnc23)CCN1 [Example 549, (R)-1-(3-chloro-5′-fluoro-2′-hydroxy-3′-(8-(3-methylpiperazin-1-yl)quinoxalin-6-yl)-[1,1′-biphenyl]-4-yl)-3-methyl-1H-imidazol-2(3H)-one]	0.3 to 30 nM	1 to 10 nM		
CNC1CCN(c2cncc(-c3cc(F)cc(-c4ccc(-n5ccn(C)c5=O)c(Cl)c4)c3O)c2)CC1 [Example 516, 1-(3-chloro-5′-fluoro-2′-hydroxy-3′-(5-(4-(methylamino)piperidin-1-yl)pyridin-3-yl)-[1,1′-biphenyl]-4-yl)-3-methyl-1H-imidazol-2(3H)-one]	0.3 to 30 nM	1 to 10 nM		
CO[C@H]1COC(=O)N1c1ccc(-c2cc(F)cc(-c3ccnc(N4CCNCC4)c3)c2O)cc1Cl [Example 506, (S)-3-(3-chloro-5′-fluoro-2′-hydroxy-3′-(2-(piperazin-1-yl)pyridin-4-yl)-[1,1′-biphenyl]-4-yl)-4-methoxyoxazolidin-2-one]	300 to 3000 nM	10 to 100 nM		

Results, then the compound that gave them:

GI50 [1, 3]	IC50 [2, 4]	GI50 [1, 5]	IC50 [2, 6]	Structure (SMILES)
30 to 300 nM	0.01 to 1 nM			CN1CCC2(CC(=O)N(c3cc(-c4cc(F)cc(-c5ccc(-n6ccn(C)c6=O)c(Cl)c5)c4O)ccn3)C2)C1 (stereo not shown) [Example 712, 2-(4-(3′-chloro-5-fluoro-2-hydroxy-4′-(3-methyl-2-oxo-2,3-dihydro-1H-imidazol-1-yl)-[1,1′-biphenyl]-3-yl)pyridin-2-yl)-7-methyl-2,7-diazaspiro[4.4]nonan-3-one]
0.3 to 30 nM	0.01 to 1 nM			COc1cc(-c2cc(F)cc(-c3ccc(-n4ccn(C)c4=O)c(Cl)c3)c2O)cc(N2CCN(C(C)C)CC2)n1 [Example 702, 1-(3-chloro-5′-fluoro-2′-hydroxy-3′-(2-(4-isopropylpiperazin-1-yl)-6-methoxypyridin-4-yl)-[1,1′-biphenyl]-4-yl)-3-methyl-1H-imidazol-2(3H)-one]
300 to 3000 nM	10 to 100 nM			CN(C)C1(c2cccc(-c3cc(F)cc(-c4ccc(-n5ccn(C)c5=O)c(Cl)c4)c3O)c2)CC1 [Example 788, 1-(3-chloro-3″-(1-(dimethylamino)cyclopropyl)-5′-fluoro-2′-hydroxy-[1,1′:3′,1″-terphenyl]-4-yl)-3-methyl-1H-imidazol-2(3H)-one]
0.3 to 30 nM	1 to 10 nM			Cn1ccn(-c2ccc(-c3cc(F)cc(-c4ccnc(N5CCCC6(CCCN6)C5)c4)c3O)cc2Cl)c1=O (stereo not shown) [Example 694, 1-(3′-(2-(1,7-diazaspiro[4.5]decan-7-yl)pyridin-4-yl)-3-chloro-5′-fluoro-2′-hydroxy-[1,1′-biphenyl]-4-yl)-3-methyl-1H-imidazol-2(3H)-one]
30 to 300 nM	1 to 10 nM			CC(C)N1CCN(c2cc(-c3cc(F)cc(-c4ccc(-n5ccn(C)c5=O)c(Cl)c4)c3O)ccc2C(F)(F)F)CC1 [Example 811, 1-(3-chloro-5′-fluoro-2′-hydroxy-3″-(4-isopropylpiperazin-1-yl)-4″-(trifluoromethyl)-[1,1′:3′,1″-terphenyl]-4-yl)-3-methyl-1H-imidazol-2(3H)-one]
0.3 to 30 nM	1 to 10 nM			Cn1ccn(-c2ccc(-c3cc(F)cc(-c4cc(-c5cn[nH]c5)cc(N5CCNCC5)c4)c3O)cc2Cl)c1=O [Example 571]
		0.3 to 30 nM	1 to 10 nM	CC(C)N1CCC12CCN(c1cc(-c3cc(F)cc(-c4ccc(-n5ccn(C)c5=O)c(Cl)c4)c3O)cnc1N(C)C)C2 (stereo not shown) [Example 987, 1-(3-chloro-3′-(6-(dimethylamino)-5-(1-isopropyl-1,6-diazaspiro[3.4]octan-6-yl)pyridin-3-yl)-5′-fluoro-2′-hydroxy-[1,1′-biphenyl]-4-yl)-3-methyl-1H-imidazol-2(3H)-one]
0.3 to 30 nM	1 to 10 nM			CC(C)N1CCCC12CCN(c1cc(-c3cc(F)cc(-c4ccc(-n5ccn(C)c5=O)c(Cl)c4)c3O)ccn1)C2 (stereo not shown) [Example 751, 1-(3-chloro-5′-fluoro-2′-hydroxy-3′-(2-(1-isopropyl-1,7-diazaspiro[4.4]nonan-7-yl)pyridin-4-yl)-[1,1′-biphenyl]-4-yl)-3-methyl-1H-imidazol-2(3H)-one]
		0.3 to 30 nM	0.01 to 1 nM	Cc1cc(-c2ccc(-n3ccn(C)c3=O)c(Cl)c2)c(O)c(-c2cccc(N3CCC4(CCN4C(C)C)C3)c2)n1 (stereo not shown) [Example 983, 1-(2-chloro-4-(3-hydroxy-2-(3-(1-isopropyl-1,6-diazaspiro[3.4]octan-6-yl)phenyl)-6-methylpyridin-4-yl)phenyl)-3-methyl-1H-imidazol-2(3H)-one]
30 to 300 nM	0.01 to 1 nM			Cn1ccn(-c2ccc(-c3cc(F)cc(-c4cc(N5CCC(N)CC5)c5cn[nH]c5c4)c3O)cc2Cl)c1=O [Example 581]
30 to 300 nM	1 to 10 nM			C[C@@H]1CN(c2cc(-c3cc(F)cc(-c4ccc(-n5ccn(C)c5=O)c(Cl)c4)c3O)ccn2)C[C@@H](C)O1 [Example 684, 1-(3-chloro-3′-(2-((2R,6R)-2,6-dimethylmorpholino)pyridin-4-yl)-5′-fluoro-2′-hydroxy-[1,1′-biphenyl]-4-yl)-3-methyl-1H-imidazol-2(3H)-one]
30 to 300 nM	0.01 to 1 nM			Cn1ccn(-c2ccc(-c3cc(F)cc(-c4ccc(C(F)F)c(N5CCN(C(C)(C)C)CC5)c4)c3O)cc2Cl)c1=O [Example 813, 1-(3″-(4-(tert-butyl)piperazin-1-yl)-3-chloro-4″-(difluoromethyl)-5′-fluoro-2′-hydroxy-[1,1′:3′,1″-terphenyl]-4-yl)-3-methyl-1H-imdiazol-2(3H)-one]
0.3 to 30 nM	0.01 to 1 nM			Cn1cc(-c2cc(F)cc(-c3ccc(-n4ccn(C)c4=O)c(Cl)c3)c2O)cc(N2CC[C@@](C)(N)C2)c1=O [Example 753, (R)-3-(3-amino-3-methylpyrrolidin-1-yl)-5-(3′-chloro-5-fluoro-2-hydroxy-4′-(3-methyl-2-oxo-2,3-dihydro-1H-imidazol-1-yl)-[1,1′-biphenyl]-3-yl)-1-methylpyridin-2(1H)-one]
0.3 to 30 nM	0.01 to 1 nM			Cn1ccn(-c2ccc(-c3cc(F)cc(-c4ccnc(C5=CCCNC5)c4)c3O)cc2Cl)c1=O [Example 657, 1-(3-chloro-5′-fluoro-2′-hydroxy-3′-(1′,2′,5′,6′-tetrahydro-[2,3′-bipyridin]-4-yl)-[1,1′-biphenyl]-4-yl)-3-methyl-1H-imidazol-2(3H)-one]
